Where two headings read alike, the source gives them in different places.
Columns and labels:
WRL-68 = experiment: cells; type: cell-based; conditions: for IC50: Homo sapiens; for toxicity against normal cell line: WRL-68, result in words
HepG2 = experiment: MTT cytotoxicity assay, HepG2; type: cell-based, human
MCF-7 = experiment: MTT cytotoxicity assay, MCF-7; type: cell-based; conditions: Homo sapiens
HCT-116 = experiment: MTT cytotoxicity assay, HCT-116; type: cell-based; conditions: Homo sapiens
PC3 cells = conditions: read-out: IC50 proliferation rate of PC3 cells; cited from earlier work
[1] = WRL68, 48 h, read-out: IC50 against WRL-68 μM 48 h
[2] = Homo sapiens, HepG2, 48 h, read-out: IC50 against HepG2 μM 48 h, MTT, 48 h
[3] = Homo sapiens, HepG2, 72 h, read-out: IC50 against HepG2 μM 72 h, MTT, 72 h
[4] = MCF7, 48 h, read-out: IC50 against MCF-7 μM 48 h
[5] = MCF7, 72 h, read-out: IC50 against MCF-7 μM 72 h
[6] = HCT-116, 48 h, read-out: IC50 against HCT-116 μM 48 h
[7] = HCT-116, 72 h, read-out: IC50 against HCT-116 μM 72 h
[8] = WRL68, 72 h, read-out: IC50 against WRL-68 μM 72 h

SMILES	IC50 (WRL-68; [1])	IC50 (HepG2; [2])	IC50 (HepG2; [3])	IC50 (MCF-7; [4])	IC50 (MCF-7; [5])	IC50 (HCT-116; [6])	IC50 (HCT-116; [7])	IC50 (WRL-68; [8])	IC50 (HepG2; read-out: IC50 against HepG2 μM 72 h, MTT, 72 h)	toxicity against normal cell line (WRL-68)	IC50 (PC3 cells)
COc1ccc(-c2nc(OCc3cn(CC(=O)Nc4cccc(OC)c4)nn3)c3ccccc3n2)cc1 [Compound 8e, N-(3-methoxyphenyl)-2-(4-(((2-(4-methoxyphenyl)quinazolin-4-yl)oxy)methyl)-1H-1,2,3-triazol-1-yl)acetamide]	112 µM	46 µM	10.2 µM	35.2 µM	23 µM	160 µM	90.6 µM				
COc1cccc2c1C(=O)c1c(O)c3c(c(O)c1C2=O)C[C@@](O)(C(=O)CO)C[C@@H]3O[C@H]1C[C@H](N)[C@H](O)[C@H](C)O1 [Doxorubicin, reference compound]	2.19 µM	1.96 µM	1.31 µM				1.21 µM	1.73 µM			
COc1cc(-c2nc(OCc3cn(CC(=O)Nc4ccc(C)cc4)nn3)c3ccccc3n2)cc(OC)c1OC [Compound 8l, N-(p-tolyl)-2-(4-(((2-(3,4,5-trimethoxyphenyl)quinazolin-4-yl)oxy)methyl)-1H-1,2,3-triazol-1-yl)acetamide]	101 µM	41.4 µM		28.8 µM	26.5 µM	64.3 µM	29.4 µM	71.3 µM			
O=C(Cn1cc(COc2nc(-c3ccc(Cl)cc3)nc3ccccc23)nn1)Nc1ccccc1 [Compound 8g, 2-(4-(((2-(4-chlorophenyl)quinazolin-4-yl)oxy)methyl)-1H-1,2,3-triazol-1-yl)-N-phenylacetamide]	103 µM	38.8 µM	13.2 µM	67.2 µM	20.9 µM	49.2 µM	24.5 µM	85.1 µM			
COc1ccc(-c2nc(OCc3cn(CC(=O)Nc4ccc(C)cc4)nn3)c3ccccc3n2)cc1 [Compound 8d, 2-(4-(((2-(4-methoxyphenyl)quinazolin-4-yl)oxy)methyl)-1H-1,2,3-triazol-1-yl)-N-(p-tolyl)acetamide]	113 µM	59.2 µM	15 µM	39.9 µM	20 µM	30.1 µM	8.97 µM	83.5 µM			
COc1cc(-c2nc(OCc3cn(CC(=O)Nc4ccccc4)nn3)c3ccccc3n2)cc(OC)c1OC [Compound 8k, N-phenyl-2-(4-(((2-(3,4,5-trimethoxyphenyl)quinazolin-4-yl)oxy)methyl)-1H-1,2,3-triazol-1-yl)acetamide]	117 µM	72.4 µM	16.2 µM	24.2 µM	11.3 µM	69 µM	41.1 µM	84.4 µM			
O=C(Cn1cc(COc2nc(-c3ccc(Cl)cc3)nc3ccccc23)nn1)Nc1ccc(Br)cc1 [Compound 8h, N-(4-bromophenyl)-2-(4-(((2-(4-chlorophenyl)quinazolin-4-yl)oxy)methyl)-1H-1,2,3-triazol-1-yl)acetamide]	115 µM	90.5 µM	8.55 µM	34.1 µM	20.6 µM	42.3 µM	41.8 µM	89.5 µM			
COc1ccc(-c2nc(OCc3cn(CC(=O)Nc4ccc(Br)cc4)nn3)c3ccccc3n2)cc1 [Compound 8c, N-(4-bromophenyl)-2-(4-(((2-(4-methoxyphenyl)quinazolin-4-yl)oxy)methyl)-1H-1,2,3-triazol-1-yl)acetamide]	106 µM	30.4 µM	13 µM	111 µM	62.2 µM	47.8 µM	12.2 µM	74.4 µM			
O=C(Cn1cc(COc2nc(-c3ccc(Cl)cc3)nc3ccccc23)nn1)Nc1cccc(Br)c1 [Compound 8j, N-(3-bromophenyl)-2-(4-(((2-(4-chlorophenyl)quinazolin-4-yl)oxy)methyl)-1H-1,2,3-triazol-1-yl)acetamide]	110 µM	55.8 µM	8.55 µM	164 µM	55.8 µM	176 µM	54.2 µM	78.6 µM	12.7 µM		
COc1ccc(-c2nc(OCc3cn(CC(=O)Nc4ccc([N+](=O)[O-])cc4C)nn3)c3ccccc3n2)cc1 [Compound 8f, 2-(4-(((2-(4-methoxyphenyl)quinazolin-4-yl)oxy)methyl)-1H-1,2,3-triazol-1-yl)-N-(2-methyl-4-nitrophenyl)acetamide]	100 µM	26.1 µM	9.15 µM	21.3 µM	18 µM	36.2 µM	23.9 µM	90.3 µM		limited toxicity	
CNC(=O)c1cc(Oc2ccc(NC(=O)Nc3ccc(Cl)c(C(F)(F)F)c3)cc2)ccn1 [sorafenib]											17.3 µM
Cc1ccc(NC(=O)Cn2cc(COc3nc(-c4ccc(Cl)cc4)nc4ccccc34)nn2)cc1 [Compound 8i, 2-(4-(((2-(4-chlorophenyl)quinazolin-4-yl)oxy)methyl)-1H-1,2,3-triazol-1-yl)-N-(p-tolyl)acetamide]	117 µM	55.1 µM	10.9 µM	221 µM	97 µM	48.1 µM	24.2 µM	86.4 µM			
COc1ccc(-c2nc(OCc3cn(CC(=O)Nc4ccccc4)nn3)c3ccccc3n2)cc1 [Compound 8a, 2-(4-(((2-(4-methoxyphenyl)quinazolin-4-yl)oxy)methyl)-1H-1,2,3-triazol-1-yl)-N-phenylacetamide]	112 µM	17.5 µM	7.94 µM	38.1 µM	13 µM	10.7 µM	5.33 µM	94.1 µM		limited toxicity	
COc1ccc(-c2nc(OCc3cn(CC(=O)Nc4ccc(Cl)cc4)nn3)c3ccccc3n2)cc1 [Compound 8b, N-(4-chlorophenyl)-2-(4-(((2-(4-methoxyphenyl)quinazolin-4-yl)oxy)methyl)-1H-1,2,3-triazol-1-yl)acetamide]	108 µM	78.9 µM	19.8 µM	25.9 µM	20.9 µM	77.1 µM	68.6 µM	89.8 µM			

Reference: paper PMC9975091 (Heliyon, 2023)
